Measured values: PubChem BioAssay AID330 (DTP/NCI, 2004)
Where “and” joins values, the source holds several entries; their conditions need not be identical. Equal values may be shown once. Toxic doses and inconclusive results are not listed. How the source made its calls: active means survival T/C of 150% or more; inactive means T/C below 125% in these data.

Test system: P388 leukemia ip, CD2F1 mice, survival T/C
Assay: NCI In Vivo Anticancer Drug Screen. Data for tumor model P388 Leukemia (intraperitoneal) in CD2F1 (CDF1) mice
Details: endpoint: median survival time, higher = longer survival
How it was run: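 Mice carrying the transplanted tumor received test compound or vehicle. Survival was recorded in each group, and the value is the treated-group measurement divided by that of the vehicle-treated control group.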

[1] = dose: 12.5 mg/kg/injection, schedule: Q01DX005 (ip), vehicle: Klucel (hydroxypropylcellulose) (HPC)
[2] = dose: 25.0 mg/kg/injection, schedule: Q01DX005 (ip), vehicle: Klucel (hydroxypropylcellulose) (HPC)
[3] = dose: 60.0 mg/kg/injection, schedule: Q01DX005 (ip), vehicle: saline with Tween-80
[4] = dose: 120.0 mg/kg/injection, schedule: Q01DX005 (ip), vehicle: saline with Tween-80
[5] = dose: 240.0 mg/kg/injection, schedule: Q01DX005 (ip), vehicle: saline with Tween-80
[6] = dose: 60.0 mg/kg/injection, schedule: Q01DX005 (ip), vehicle: Klucel (hydroxypropylcellulose) (HPC)
[7] = dose: 120.0 mg/kg/injection, schedule: Q01DX005 (ip), vehicle: Klucel (hydroxypropylcellulose) (HPC)
[8] = dose: 240.0 mg/kg/injection, schedule: Q01DX005 (ip), vehicle: Klucel (hydroxypropylcellulose) (HPC)
[9] = dose: 50.0 mg/kg/injection, schedule: Q01DX009 (ip), vehicle: saline
[10] = dose: 100.0 mg/kg/injection, schedule: Q01DX009 (ip), vehicle: saline

Measured: T/C

N#CC1=C(Nc2ccccc2)CCC1
inactive: [1] 95 % of control | [2] 101 % of control | dose: 50.0 mg/kg/injection, schedule: Q01DX005 (ip), vehicle: Klucel (hydroxypropylcellulose) (HPC) 99 % of control and 101 % of control | dose: 100.0 mg/kg/injection, schedule: Q01DX005 (ip), vehicle: Klucel (hydroxypropylcellulose) (HPC) 110 % of control

CN(C)Cc1cc(O)c(CN(C)C)cc1O
inactive: dose: 3.13 mg/kg/injection, schedule: Q01DX009 (ip), vehicle: saline + Tween-80 + alcohol 100 % of control | dose: 6.25 mg/kg/injection, schedule: Q01DX009 (ip), vehicle: saline + Tween-80 + alcohol 101 % of control and 111 % of control | dose: 12.5 mg/kg/injection, schedule: Q01DX009 (ip), vehicle: other 123 % of control | dose: 12.5 mg/kg/injection, schedule: Q01DX009 (ip), vehicle: saline + Tween-80 + alcohol 102 % of control and 112 % of control | dose: 25.0 mg/kg/injection, schedule: Q01DX009 (ip), vehicle: other 105 % of control | dose: 25.0 mg/kg/injection, schedule: Q01DX009 (ip), vehicle: saline + Tween-80 + alcohol 107 % of control and 109 % of control | dose: 50.0 mg/kg/injection, schedule: Q01DX009 (ip), vehicle: other 105 % of control | dose: 100.0 mg/kg/injection, schedule: Q01DX009 (ip), vehicle: other 119 % of control

O=[N+]([O-])c1ccccc1Sc1cccc(Sc2ccccc2[N+](=O)[O-])n1
inactive: [3] 100 % of control | [4] 105 % of control | [5] 102 % of control

COc1cc2c(cc1C(C)c1ccc(OCc3ccccc3)cc1)OCO2 (configuration not stated)
inactive: dose: 25.0 mg/kg/injection, schedule: Q01DX005 (ip), vehicle: distilled water + Tween-80 99 % of control | dose: 50.0 mg/kg/injection, schedule: Q01DX005 (ip), vehicle: distilled water + Tween-80 98 % of control | dose: 100.0 mg/kg/injection, schedule: Q01DX005 (ip), vehicle: distilled water + Tween-80 90 % of control and 94 % of control | dose: 200.0 mg/kg/injection, schedule: Q01DX005 (ip), vehicle: distilled water + Tween-80 90 % of control and 91 % of control

CC(=O)c1c(C)oc(C)c1-c1ccc2c(c1)OCO2
inactive: [6] 108 % of control | [7] 103 % of control | [8] 104 % of control

COc1ccc(/C=C2/C(=O)N(c3ccccc3)N=C2C)cc1OC
inactive: [6] 101 % of control | [7] 93 % of control | [8] 90 % of control

C[N+](C)(C)CCC(=O)c1ccc([N+](=O)[O-])cc1
inactive: [9] 109 % of control | [10] 118 % of control

Oc1ccc[nH]c1=S
inactive: dose: 12.5 mg/kg/injection, schedule: Q01DX009 (ip), vehicle: saline 104 % of control and 105 % of control

CN(C)c1ccc(C2(c3ccc(N(C)C)cc3)NNC(=O)c3cc(N(C)C)ccc32)cc1
inactive: dose: 1.5 mg/kg/injection, schedule: Q01DX005 (ip), vehicle: saline 100 % of control | dose: 3.0 mg/kg/injection, schedule: Q01DX005 (ip), vehicle: saline 93 % of control | dose: 6.0 mg/kg/injection, schedule: Q01DX005 (ip), vehicle: saline 95 % of control | dose: 6.25 mg/kg/injection, schedule: Q01DX005 (ip), vehicle: saline with Tween-80 92 % of control

Cn1ncc2c(N)c(C#N)c(=O)[nH]c21
inactive: dose: 25.0 mg/kg/injection, schedule: Q01DX001 (ip), vehicle: saline with Tween-80 102 % of control

c1ccc(-c2nn(-c3ccccc3)[n+](-c3ccccc3)n2)cc1
inactive: dose: 1.25 mg/kg/injection, schedule: Q01DX009 (ip), vehicle: saline with Tween-80 100 % of control | dose: 2.5 mg/kg/injection, schedule: Q01DX009 (ip), vehicle: saline with Tween-80 90 % of control

OCC(O)CO
inactive: dose: 0.5 % in 0.5 ml injection vol, schedule: Q01DX009 (ip), vehicle: water 100 % of control | dose: 1.0 % in 0.5 ml injection vol, schedule: Q01DX009 (ip), vehicle: water 93 % of control | dose: 2.0 % in 0.5 ml injection vol, schedule: Q01DX009 (ip), vehicle: water 99 % of control and 105 % of control | dose: 4.0 % in 0.5 ml injection vol, schedule: Q01DX009 (ip), vehicle: water 105 % of control and 111 % of control | dose: 8.0 % in 0.5 ml injection vol, schedule: Q01DX009 (ip), vehicle: water 104 % of control and 94 % of control | dose: 16.0 % in 0.5 ml injection vol, schedule: Q01DX009 (ip), vehicle: water 101 % of control and 102 % of control

CN(C)C1=C(Cl)C(=O)c2[nH]cnc2C1=O
inactive: dose: 6.25 mg/kg/injection, schedule: Q01DX005 (ip), vehicle: Klucel (hydroxypropylcellulose) (HPC) 113 % of control | [1] 110 % of control | [2] 98 % of control

CCOP(=O)(CC(=O)O)OCC
inactive: [9] 100 % of control | [10] 102 % of control | dose: 200.0 mg/kg/injection, schedule: Q01DX009 (ip), vehicle: saline 93 % of control

COc1ccc2oc3c(ccc(=O)n3C)c(=O)c2c1
inactive: dose: 0.69 mg/kg/injection, schedule: Q01DX001 (ip), vehicle: saline with Tween-80 99 % of control | dose: 138.0 mg/kg/injection, schedule: Q01DX001 (ip), vehicle: saline with Tween-80 96 % of control | dose: 276.0 mg/kg/injection, schedule: Q01DX001 (ip), vehicle: saline with Tween-80 91 % of control

OCc1ccn2c1CCC2
inactive: dose: 6.25 mg/kg/injection, schedule: Q01DX009 (ip), vehicle: water 107 % of control | dose: 12.5 mg/kg/injection, schedule: Q01DX009 (ip), vehicle: water 109 % of control | dose: 25.0 mg/kg/injection, schedule: Q01DX009 (ip), vehicle: water 110 % of control | dose: 50.0 mg/kg/injection, schedule: Q01DX009 (ip), vehicle: water 115 % of control | dose: 100.0 mg/kg/injection, schedule: Q01DX009 (ip), vehicle: water 109 % of control

CCOC1(OCC)CC(c2ccccc2)c2cnn(-c3ccccc3)c2O1 (configuration not stated)
inactive: [6] 92 % of control | [7] 93 % of control | [8] 87 % of control

N#C/C(=C\Nc1ccccn1)C(=O)C1CC1
inactive: [3] 100 % of control | [4] 92 % of control | [5] 91 % of control

Cn1c(=O)c2c(ncn2C)n(C)c1=O.[Cl][Pt]([Cl])[Cl]
inactive: dose: 6.25 mg/kg/injection, schedule: Q01DX005 (ip), vehicle: water 116 % of control | dose: 12.5 mg/kg/injection, schedule: Q01DX005 (ip), vehicle: water 116 % of control and 124 % of control | dose: 25.0 mg/kg/injection, schedule: Q01DX005 (ip), vehicle: water 120 % of control | dose: 50.0 mg/kg/injection, schedule: Q01DX005 (ip), vehicle: water 121 % of control | dose: 100.0 mg/kg/injection, schedule: Q01DX005 (ip), vehicle: water 121 % of control

C=C(CCCCOCOCCOC)c1ccccc1
inactive: dose: 50.0 mg/kg/injection, schedule: Q01DX005 (ip), vehicle: saline 106 % of control | dose: 100.0 mg/kg/injection, schedule: Q01DX005 (ip), vehicle: saline 107 % of control | dose: 200.0 mg/kg/injection, schedule: Q01DX005 (ip), vehicle: saline 99 % of control

CNC(=O)OCc1c(-c2ccccc2)nc2n1CCS2
inactive: dose: 12.5 mg/kg/injection, schedule: Q01DX001 (ip), vehicle: Klucel (hydroxypropylcellulose) (HPC) 108 % of control | dose: 25.0 mg/kg/injection, schedule: Q01DX001 (ip), vehicle: Klucel (hydroxypropylcellulose) (HPC) 107 % of control | dose: 50.0 mg/kg/injection, schedule: Q01DX001 (ip), vehicle: Klucel (hydroxypropylcellulose) (HPC) 113 % of control

C=C(C)C1CCC2(CO)C(O)CC3(C)C(CCC4C5(C)CCC(O)C(C)(C)C5CCC43C)C12 (configuration not stated)
inactive: dose: 15.0 mg/kg/injection, schedule: Q01DX009 (ip), vehicle: Klucel (hydroxypropylcellulose) (HPC) 93 % of control | dose: 30.0 mg/kg/injection, schedule: Q01DX009 (ip), vehicle: Klucel (hydroxypropylcellulose) (HPC) 94 % of control | dose: 60.0 mg/kg/injection, schedule: Q01DX009 (ip), vehicle: Klucel (hydroxypropylcellulose) (HPC) 86 % of control | dose: 120.0 mg/kg/injection, schedule: Q01DX009 (ip), vehicle: Klucel (hydroxypropylcellulose) (HPC) 92 % of control

CNCCSSCCN
inactive: dose: 25.0 mg/kg/injection, schedule: Q04DX003 (ip), vehicle: saline 100 % of control | dose: 50.0 mg/kg/injection, schedule: Q04DX003 (ip), vehicle: saline 90 % of control | dose: 100.0 mg/kg/injection, schedule: Q04DX003 (ip), vehicle: saline 86 % of control

O=P1(O)CC2=C(CC=CC2)C1
inactive: dose: 50.0 mg/kg/injection, schedule: Q01DX009 (ip), vehicle: saline with Tween-80 98 % of control | dose: 100.0 mg/kg/injection, schedule: Q01DX009 (ip), vehicle: saline with Tween-80 89 % of control | dose: 200.0 mg/kg/injection, schedule: Q01DX009 (ip), vehicle: saline with Tween-80 98 % of control
